Results reported in patent US9657015B2, “Substituted bicyclic dihydropyrimidinones and their use as inhibitors of neutrophil elastase activity” (Boehringer Ingelheim International GmbH, priority 2014, dated 2017).
Values after ≈ are worked out from the molar mass of the structure shown. Blank lines part the entries; values can stand above or below the compound they belong to.

Legend:
[1] = Metabolic stability with human liver microsomes; type: in vitro ADME; conditions: pH 7.6; pooled human liver microsomes, 37° C., 1 μM test compound, 1 mg/ml microsomal protein, NADPH; read-out: t1/2 INVITRO
[2] = Metabolic stability with human hepatocytes; type: in vitro ADME; conditions: human hepatocyte suspension (typically cryopreserved), 1 μM test compound, six hours, scaled with well stirred model
Procedure: Assay for the Determination of Metabolic Stability with Human Hepatocytes
The metabolic degradation of the test compound is assayed in a human hepatocyte suspension. Human hepatocytes (typically cryopreserved) are incubated in an appropriate buffer system (e.g. Dulbecco's modified eagle medium plus 3.5 μg glucagon/500 mL, 2.5 mg insulin/500 mL and 3.75 mg/500 mL hydrocortison) containing 5% species serum. Following a (typically) 30 min preincubation in an incubator (37° C., 10% CO2), 5 μl of test compound solution (80 μM; from 2 mM stock solution in DMSO diluted 1:25 with medium) are added into 395 μl hepatocyte suspension (cell density in the range 0.25-5*10^6 cells/mL, typically 1*10^6 cells/mL; final concentration of test compound 1 μM, final DMSO concentration 0.05%). The cells are incubated for six hours (incubator, orbital shaker) and samples (25 μl) are taken at 0, 0.5, 1, 2, 4 and 6 hours. Samples are transferred into acetonitrile and pelleted by centrifugation (5 min) The supernatant is transferred to a new 96-deepwell plate, evaporated under nitrogen and resuspended. The decline of parent compound is analyzed by LC-MS/MS.
The intrinsic clearance CL_[…] is calculated as follows: CL_[…]=Dose/AUC=(C0/CD)/(AUD+clast/k)*1′000/60 (C0: initial concentration in the incubation [μM], CD: cell density of vital cells [10^6 cells/mL], AUD: area under the data [μM*h], clast: concentration of last data point [μM], k: slope of the regression line for parent decline [h^−1])
The calculated in vitro hepatic intrinsic clearance can be scaled up to the intrinsic in vivo hepatic clearance and used to predict hepatic in vivo blood clearance (CL) by the use of a liver model (well stirred model): CL_[…]_INVIVO [ml/min/kg]=(CL_[…] [μL/min/10^6 cells]*hepatocellularity [10^6 cells/g liver]*liver factor [g/kg bodyweight])/1′000 CL [ml/min/kg]=CL_[…]_INVIVO [ml/min/kg]*hepatic blood flow [ml/min/kg]/(CL_[…]_INVIVO [ml/min/kg]+hepatic blood flow [ml/min/kg]) Qh [%]=CL [ml/min/kg]/hepatic blood flow [ml/min/kg]) (Hepatocellularity, human: 120*10^6 cells/g liver; liver factor, human: 25.7 g/kg bodyweight; blood flow, human: 21 ml/(min*kg))

[3] = Drug transport across human Caco-2 cells; type: in vitro ADME; conditions: human, Caco-2 monolayers, pH 7.2, 37° C.; for Papp A→B at 10 µM: apical-to-basal, read-out: PEAB; for Papp B→A at 10 µM: basal-to-apical, read-out: PEBA
Text: (§1) Assay for Determination of Drug Transport Across Human Caco-2 Cells
(§2) The assay provides information on the potential of a compound to pass the cell membrane, on the extent of oral absorption as well as on whether the compound is actively transported by uptake and/or efflux transporters. For the measurement of permeability across polarized, confluent human cancer colon carcinoma cells 2 (Caco-2) cell monolayers grown on permeable filter supports are used as the in vitro absorption model.
(§3) Apparent permeability coefficients (PE) of the compounds across the Caco-2 monolayers are measured (pH 7.2, 37° C.) in apical-to-basal (AB) (absorptive) and basal-to-apical (BA) (secretory) transport direction. AB permeability (PEAB) represents drug absorption from the intestine into the blood and BA permeability (PEBA) drug secretion from the blood back into the intestine via both passive permeability as well as active transport mechanisms mediated by efflux and uptake transporters that are expressed on the Caco-2 cells. The compounds are assigned to permeability/absorption classes by comparison of the AB permeabilities with the AB permeabilities of reference compounds with known in vitro permeability and oral absorption in the human. Identical or similar permeabilities in both transport directions indicate passive permeation, vectorial permeability points to additional active transport mechanisms. […] Active transport is concentration-dependently saturable.
(§4) Caco-2 cells (1-2*10^5 cells/cm^2 area) are seeded on filter inserts (Costar transwell polycarbonate or PET filters, 0.4 μm pore size) and cultured (DMEM) for 10 to 25 days. Compounds are dissolved in appropriate solvent (like DMSO, 1-20 mM stock solutions). Stock solutions are diluted with HTP-4 buffer (128.13 mM NaCl, 5.36 mM KCl, 1 mM MgSO4, 1.8 mM CaCl2, 4.17 mM NaHCO3, 1.19 mM Na2HPO4×7H2O, 0.41 mM NaH2PO4×H2O, 15 mM HEPES, 20 mM glucose, pH 7.2) to prepare the transport solutions (typically 10 μM compound, final DMSO<=0.5%). The transport solution (TL) is applied to the apical or basolateral donor side for measuring A-B or B-A permeability (3 filter replicates), respectively. The receiver side contains HTP-4 buffer supplemented with 2% BSA. Samples are collected at the start and end of experiment from the donor and at various time intervals for up to 2 hours also from the receiver side for concentration measurement by LC-MS/MS or scintillation counting. Sampled receiver volumes are replaced with fresh receiver solution.
(§5) The apparent permeability coefficients (PEAB and PEBA) of selected compounds in the Caco-2 drug transport assay described above are listed in Table 9.

[4] = target: Human neutrophil elastase (Homo sapiens (Human), UniProt P08246); experiment: Human Neutrophil Elastase Assay; type: biochemical; conditions: substrate MeOSuc-Ala-Ala-Pro-Val-AMC 250 μM, pH 7.5, room temperature
Chain of Human neutrophil elastase (P08246 30-247): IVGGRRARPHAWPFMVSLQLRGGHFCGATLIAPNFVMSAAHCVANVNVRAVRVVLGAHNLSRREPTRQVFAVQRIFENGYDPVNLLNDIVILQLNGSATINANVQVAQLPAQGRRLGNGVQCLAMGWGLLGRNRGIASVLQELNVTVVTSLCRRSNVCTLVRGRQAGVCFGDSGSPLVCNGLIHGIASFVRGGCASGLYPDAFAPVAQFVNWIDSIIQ

[5] = Aqueous solubility (High Throughput Method); type: physicochemical; conditions: McIlvaine buffer pH 6.8, 2.5% DMSO, 24 h shaking; for solubility at 24 h: McIlvaine buffer pH 6.8 with 2.5% DMSO, aqueous buffer, kinetic from dmso stock
Procedure: Assay for Determination of Aqueous Solubility (“High Throughput Method”)
Starting from a 10 mM DMSO stock solution, aliquots are diluted with acetonitrile/water (1/1) and McIlvaine buffer pH 6.8, respectively. After 24 h of shaking, the solutions or suspensions are filtered and analyzed by LC-UV. The amount dissolved in buffer is compared to the amount dissolved in the acetonitrile/water (1/1) solution. Solubility is measured from 0.001 to 0.125 mg/ml at a DMSO concentration of 2.5%. If more than 90% of the compound is dissolved in buffer, the value is marked with “>”.

[6] = target: neutrophil elastase in human plasma (Homo sapiens (Human), UniProt P08246); experiment: Neutrophil elastase inhibitory activity in human plasma; type: biochemical; conditions: human plasma assay (zymosan-stimulated blood plasma), substrate 250 μM, pH 7.5
Chain of neutrophil elastase in human plasma (P08246 30-247): as above

[7] = Aqueous solubility (Shaked Flask Method); type: physicochemical; conditions: aqueous buffer, thermodynamic from solid, pH 6.8 (McIlvaine buffer)
Procedure: Assay for Determination of Aqueous Solubility (“Shaked Flask Method”)
Saturated solutions are prepared in well plates by adding an appropriate volume of selected aqueous media (typically in the range of 0.25-1.5 ml) into each well which contains a known quantity of solid drug substance (typically in the range 0.5-5.0 mg). The wells are shaken or stirred for a predefined time period (typically in a range of 2-24 h) and then filtered using appropriate filter membranes (typically PTFE-filters with 0.45 μm pore size). Filter absorption is avoided by discarding the first few drops of filtrate. The amount of dissolved drug substance is determined by UV spectroscopy or by HPLC with UV-detection. In addition, the pH of the aqueous saturated solution is measured using a glass-electrode pH meter.

Caco-2 cells = experiment: Drug transport across human Caco-2 cells; type: in vitro ADME; conditions: Caco-2 monolayers, pH 7.2, 37° C.
Text: as §1, §2, §3, §4, §5

SMILES: COC(=O)CN1C(=O)N(c2cccc(C(F)(F)F)c2)C2=C(C(=O)NCC2)C1c1ccc(C#N)cc1 (centres unmarked) [Example 9, Methyl 2-(4-(4-Cyanophenyl)-2,5-dioxo-1-(3-(trifluoromethyl)phenyl)-1,2,5,6,7,8-hexahydropyrido[4,3-d]pyrimidin-3(4H)-yl)acetate]
- half-life at 1 μM [1]: > 2.17 h
- Papp A→B at 10 µM [3]: 6.1 ×10⁻⁶ cm/s
- Papp B→A at 10 µM [3]: 63 ×10⁻⁶ cm/s
- IC50 [4]: 2.3 nM
- solubility at 24 h [5]: 88 µg/mL (≈ 182 µM)
- IC50 [6]: 3.1 nM

SMILES: CN1C(=O)N(c2cccc(C(F)(F)F)c2)C2=C(C(=O)NCC2)C1c1ccc(C#N)cc1-c1ccncn1 (centres unmarked) [Example 35, 4-{3-Methyl-2,5-dioxo-1-[3-(trifluoromethyl)phenyl]-1H,2H,3H,4H,5H,6H,7H,8H-pyrido[4,3-d]pyrimidin-4-yl}-3-(pyrimidin-4-yl)benzonitrile]
- half-life at 1 μM [1]: > 2.17 h
- CLhep predicted at 1 μM [2]: 1 mL/min/kg
- Papp A→B at 10 µM [3]: 5.7 ×10⁻⁶ cm/s
- Papp B→A at 10 µM [3]: 100 ×10⁻⁶ cm/s
- IC50 [4]: < 1 nM
- solubility at 24 h [5]: 84 µg/mL (≈ 167 µM)
- IC50 [6]: < 1 nM

SMILES: CN1CCC2=C(C1=O)C(c1ccc(C#N)cc1-c1cnn(C)c1)N(C)C(=O)N2c1cccc(C(F)(F)F)c1 (centres unmarked) [Example 36, 4-{3,6-Dimethyl-2,5-dioxo-1-[3-(trifluoromethyl)phenyl]4H,2H,3H,4H,5H,6H,7H,8H-pyrido[4,3-d]pyrimidin-4-yl}-3-(1-methyl-1H-pyrazol-4-yl)benzonitrile]
- half-life at 1 μM [1]: > 2.17 h
- Papp A→B at 10 µM [3]: 30 ×10⁻⁶ cm/s
- Papp B→A at 10 µM [3]: 83 ×10⁻⁶ cm/s
- IC50 [4]: < 1 nM
- solubility at 24 h [5]: 42 µg/mL (≈ 80.7 µM)
- IC50 [6]: 2.3 nM
- solubility [7]: ≥ 10 µg/mL

SMILES: CN1CCC2=C(C1=O)C(c1ccc(C#N)cc1-c1cnco1)N(C)C(=O)N2c1cccc(C(F)(F)F)c1 (centres unmarked) [Example 37, 4-{3,6-Dimethyl-2,5-dioxo-1-[3-(trifluoromethyl)phenyl]-1H,2H,3H,4H,5H,6H,7H,8H-pyrido[4,3-d]pyrimidin-4-yl}-3-(1,3-oxazol-5-yl)benzonitrile]
- half-life at 1 μM [1]: > 2.17 h
- Papp A→B at 10 µM [3]: 32 ×10⁻⁶ cm/s
- Papp B→A at 10 µM [3]: 90 ×10⁻⁶ cm/s
- IC50 [4]: < 1 nM
- solubility at 24 h [5]: 60 µg/mL (≈ 118 µM)
- IC50 [6]: 1.1 nM
- solubility [7]: ≥ 10 µg/mL

SMILES: CN1CCC2=C(C1=O)C(c1ccc(C#N)cc1C(N)=O)N(C)C(=O)N2c1cccc(C(F)(F)F)c1 (centres unmarked) [Example 39, 5-Cyano-2-{3,6-dimethyl-2,5-dioxo-1-[3-(trifluoromethyl)phenyl]-1H,2H,3H,4H,5H,6H,7H,8H-pyrido[4,3-d]pyrimidin-4-yl}benzamide]
- half-life at 1 μM [1]: > 2.17 h
- Papp A→B at 10 µM [3]: 4.2 ×10⁻⁶ cm/s
- Papp B→A at 10 µM [3]: 59 ×10⁻⁶ cm/s
- IC50 [4]: < 1 nM
- solubility at 24 h [5]: 78 µg/mL (≈ 161 µM)
- IC50 [6]: < 1 nM

SMILES: CN1C(=O)N(c2cccc(C(F)(F)F)c2)C2=C(C(=O)NCC2)C1c1ccc(C#N)cc1S(C)(=O)=O (centres unmarked) [Example 40, 3-Methanesulfonyl-4-{3-methyl-2,5-dioxo-1-[3-(trifluoromethyl)phenyl]-1H,2H,3H,4H,5H,6H,7H,8H-pyrido[4,3-d]pyrimidin-4-yl}benzonitrile]
- half-life at 1 μM [1]: > 2.17 h
- CLhep predicted at 1 μM [2]: 1 mL/min/kg
- Papp A→B at 10 µM [3]: 17 ×10⁻⁶ cm/s
- Papp B→A at 10 µM [3]: 87 ×10⁻⁶ cm/s
- IC50 [4]: < 1 nM
- IC50 [6]: < 1 nM

Next, values leading:

- half-life at 1 μM [1]: > 2.17 h
- CLhep predicted at 1 μM [2]: 2 mL/min/kg
- Papp A→B at 10 µM [3]: 20 ×10⁻⁶ cm/s
- Papp B→A at 10 µM [3]: 97 ×10⁻⁶ cm/s
- IC50 [4]: < 1 nM
- solubility at 24 h [5]: 61 µg/mL (≈ 149 µM)
- IC50 [6]: < 1 nM
SMILES: CN1C(=O)N(c2cccc(C(F)F)c2)C2=C(C(=O)NCC2)[C@H]1c1ccc(C#N)cc1 [Example 8A, (R)-4-(1-(3-(Difluoromethyl)phenyl)-3-methyl-2,5-dioxo-1,2,3,4,5,6,7,8-octahydropyrido[4,3-d]pyrimidin-4-yl)benzonitrile]

- half-life at 1 μM [1]: > 2.17 h
- CLhep predicted at 1 μM [2]: 3 mL/min/kg
- Papp A→B at 10 µM [3]: 11 ×10⁻⁶ cm/s
- Papp B→A at 10 µM [3]: 85 ×10⁻⁶ cm/s
- solubility at 24 h [5]: 60 µg/mL (≈ 122 µM)
- IC50 [6]: < 1 nM
- solubility [7]: ≥ 10 µg/mL
SMILES: CN1C(=O)N(c2cccc(C(F)(F)F)c2)C2=C(C(=O)NCC2)[C@H]1c1ccc(C#N)cc1-c1cnco1 [Example 30A, 4-[(4R)-3-Methyl-2,5-dioxo-1-[3-(trifluoromethyl)phenyl]-1H,2H,3H,4H,5H,6H,7H,8H-pyrido[4,3-d]pyrimidin-4-yl]-3-(1,3-oxazol-5-yl)-benzonitrile]

- CLhep predicted at 1 μM [2]: 3 mL/min/kg
- Papp A→B at 10 µM [3]: 6.9 ×10⁻⁶ cm/s
- Papp B→A at 10 µM [3]: 61 ×10⁻⁶ cm/s
- IC50 [4]: < 1 nM
- solubility at 24 h [5]: 19 µg/mL (≈ 41.6 µM)
- IC50 [6]: < 1 nM
- solubility [7]: ≥ 10 µg/mL
SMILES: CN1C(=O)N(c2cccc(C(F)(F)F)c2)C2=C(C(=O)NCC2)[C@H]1c1ccc(C#N)cc1CO [Example 32A, 3-(Hydroxymethyl)-4-[(4R)-3-methyl-2,5-dioxo-1-[3-(trifluoromethyl)phenyl]-1H,2H,3H,4H,5H,6H,7H,8H-pyrido[4,3-d]pyrimidin-4-yl]benzonitrile]

- PEAB (Caco-2 cells; apical-to-basal): 26 ×10⁻⁶ cm/s
- PEBA (Caco-2 cells; basal-to-apical): 110 ×10⁻⁶ cm/s
- IC50 [4]: 1.4 nM
- Aqueous solubility [5]: 70 µg/mL
- IC50 [6]: 1.8 nM
SMILES: CN1CCC2=C(C1=O)C(c1ccc(C#N)cc1-c1cccnc1)N(C)C(=O)N2c1cccc(C(F)(F)F)c1 (centres unmarked) [Example 36.1]
